For one test, the system named is β2-AR-Sp SPASM sensor. Kind of test: ΔFRET assay of β2-AR activation on native membranes with β2-AR-Sp SPASM sensor. The class given is biochemical, human. Details: mean ΔFRET: unit of the concentration uncertain. The conditions noted are these: for mean ΔFRET: SuppFig 3c. How it is done: Membranes were prepared following a published protocol[56] from HEK293T cells transiently transfected with the appropriate DNA (β2-AR-mCherry, β2-mCerulean, V1AR-mCherry, β2-AR-ICL3 or β2-AR-Sp). Cells were collected in culture medium and washed twice with PBS by centrifugation (300 × g, 3 min, ambient temperature). Cell pellets were incubated with an ice-cold hypotonic buffer (solution A: 10 mM HEPES, 1 mM EGTA, pH 7.2) for 30 min on ice. Cells in solution A were lysed gently (30 strokes) in a chilled Dounce homogenizer in the presence of 1.5 μg/mL aprotinin, 1.5 μg/mL leupeptin, 5 μg/mL phenylmethylsulfonyl fluoride (PMSF) and 1 mM dithiothreitol (DTT). Nuclei and intact cells were eliminated by centrifugation at 1000 × g, 5 min, 4 °C. All subsequent centrifugation steps were performed in a TLA100.4 rotor at 135,000 × g, 30 min, 4 °C. Native membranes were washed with 20 mM HEPES, 100 mM NaCl, 5 mM MgCl2, 100 μM GDP in the presence of 1.5 μg/mL aprotinin, 1.5 μg/mL leupeptin, 5 μg/mL PMSF, and 1 mM DTT, and were stored in the same buffer with 12% sucrose. For experiments to monitor Gα peptide–GPCR interactions using ΔFRET response, the native β2-AR-Sp sensor-containing membranes were washed in buffer containing 20 mM HEPES, 100 mM NaCl, 45 mM KCl, 5 mM MgCl2, and 100 μM GDP, and were stored in sucrose (12% w/v)-supplemented wash buffer.
Native membranes were collected from HEK293T cells expressing either the β2-AR-Sp SPASM sensor or the β2-AR-ICL3 conformational sensor. Frozen membranes were thawed and handled on ice. The membranes were resuspended by sonication to a concentration of 100 nM sensor (1 × 10^6 mCer cps) in 20 mM HEPES, 100 mM NaCl, 45 mM KCl, 5 mM MgCl2, pH 7.4 (ΔFRET buffer minus Ca^2+) in the presence of 1.5 μg/mL aprotinin, 1.5 μg/mL leupeptin, and 5 μg/mL PMSF. Indicated peptides were added to 30 μM (50 μM for PC-Qp) in a sample volume of 1 mL. The sample was aliquoted as 90 μl into ten replicate tubes—five labeled ISO and five buffer. Agonist solution (ISO) containing 1 mM Isoproterenol and 1 mM ascorbic acid was prepared in ΔFRET buffer minus Ca^2+. […]

The target in another test is T1, β2-AR-mCer (Homo sapiens, UniProt P07550).
T1 construct: expressed in transfected cells; host or cells: native membranes of transiently transfected HEK293T cells
Kind of test: competition pull-down assay, displacement of PC-Qp (fragments) from β2-AR-mCer membranes. The class given is binding. To be noted: PC-Qp 50 μM; thirty seconds after UV irradiation. How it is done: Native membranes were prepared from cells expressing β2-mCer and were stored in sucrose-supplemented buffer A as described above (Membrane preparations). Membranes were sonicated (3× bursts, 15 s with 1 min pauses) and resuspended in ΔFRET buffer minus Ca^2+ to a concentration of 10 nM receptor based on fluorescence counts. bioQp (30 μM)/30 μM bioQp + 30 μM Qp/30 μM bioQp + 50 μM Qp, and 100 μM isoproterenol were added and mixed for 5 min. Samples were split into duplicates, one of which was not manipulated in any way to obtain the total receptor counts. To the other tube, 20 μl of 0.4 mg/ml streptavidin-coated magnetic beads were added, mixed, and precipitated using a Neodymium disc magnet N52 (20 × 40 mm). Supernatant was removed to a fresh micro-centrifuge tube to monitor fluorescence of receptors not bound to the beads. Percentage of receptors bound to the beads was calculated by subtracting the unbound from the total (duplicate). The experiment was repeated with UV exposure for 2 min, followed by the addition and pulldown using the magnetic beads.

Regarding “DTENIRFVFAAVKDTILQLNLKE(Anp)NLV [PC-Qp, photocleavable Qp, Y356 replaced by Anp]”, the “mean ΔFRET” value in the test with β2-AR-Sp SPASM sensor (PCQp (30 µM)) is given as 0.018; with β2-AR-Sp SPASM sensor (PCQp (50 µM)) it was 0.024. Besides, in the test with β2-AR-Sp SPASM sensor (β2-AR-Sp sensor, ISO 100 μM, depletion (bioQp) or photocleavage (PC-Qp)), the “duration of sustained FRET response after peptide removal” value amounted to 120 s. Moreover, the “competition with bioQp for receptor binding” value on β2-AR-mCer was “no longer competes with bioQp for interaction with the receptor”.
